According to ChEMBL document CHEMBL3885881, “DrugMatrix”:

Species on record: Rattus norvegicus
Experiment: DrugMatrix - Regimen: Daily Repeat
Format: toxicity, organism-based, Sprague-Dawley
Parameters: regimen Daily Repeat, gender Male, age 6-8 weeks
Conditions: in vivo, po, route oral GAVAGE, […]; for URIC ACID / ALANINE AMINOTRANSFERASE / ALBUMIN / ALKALINE PHOSPHATASE / ASPARTATE AMINOTRANSFERASE / BLOOD UREA NITROGEN / CARBON DIOXIDE / CHLORIDE / CHOLESTEROL / CREATINE PHOSPHOKINASE / CREATININE / GLUCOSE / LACTATE DEHYDROGENASE / LIPASE / PHOSPHORUS / POTASSIUM / SODIUM / TOTAL BILIRUBIN / TOTAL PROTEIN: tissue Plasma
[1] = 72 h, tissue Blood, dose 4.2 mg/Kg, dose level Low, time 3 day
[2] = 72 h, dose 4.2 mg/Kg, dose level Low, time 3 day
[3] = 120 h, tissue Blood, dose 4.2 mg/Kg, dose level Low, time 5 day
[4] = 120 h, dose 4.2 mg/Kg, dose level Low, time 5 day

O=NN(CCCl)C(=O)NC1CCCCC1 [LOMUSTINE]
URIC ACID (0 mg/kg, 120 h, dose level Control, time 5 day): 1.52 mg/dL | ABSOLUTE BASOPHIL [1]: 0 CELLS/uL | ABSOLUTE EOSINOPHIL [1]: 32.67 CELLS/uL | ABSOLUTE LYMPHOCYTE [1]: 10341.33 CELLS/uL | ABSOLUTE MONOCYTE [1]: 0 CELLS/uL | BASOPHIL [1]: 0% | EOSINOPHIL [1]: 0.33% | ERYTHROCYTE COUNT [1]: 5.55 x10E6/uL | HEMATOCRIT [1]: 34.1% | HEMOGLOBIN [1]: 13.57 G/DL | LEUKOCYTE COUNT [1]: 10.97 x10E3/uL | LYMPHOCYTE [1]: 94.33% | MEAN CORPUSCULAR HEMOGLOBIN [1]: 24.43 pg | MEAN CORPUSCULAR HEMOGLOBIN CONCENTRATION [1]: 39.77 G/DL | MEAN CORPUSCULAR VOLUME [1]: 61.4 fL | MONOCYTE [1]: 0% | NEUTROPHIL [1]: 5.33% | NUCLEATED RED BLOOD CELLS [1]: 0 /100WBC | PLATELET COUNT [1]: 1095 x10E3/uL | ALANINE AMINOTRANSFERASE [2]: 51.33 u/L | ALBUMIN [2]: 3.83 G/DL | ALKALINE PHOSPHATASE [2]: 333.67 u/L | ASPARTATE AMINOTRANSFERASE [2]: 87.33 u/L | BLOOD UREA NITROGEN [2]: 11.33 mg/dL | CARBON DIOXIDE [2]: 25.67 mmol/L | CHLORIDE [2]: 103 MEQ/L | CHOLESTEROL [2]: 70 mg/dL | CREATINE PHOSPHOKINASE [2]: 944.67 u/L | CREATININE [2]: 0.19 mg/dL | GLUCOSE [2]: 199 mg/dL | LACTATE DEHYDROGENASE [2]: 127 u/L | LIPASE [2]: 10.33 u/L | PHOSPHORUS [2]: 11.7 mg/dL | POTASSIUM [2]: 5.37 MEQ/L | SODIUM [2]: 142.27 MEQ/L | TOTAL BILIRUBIN [2]: 0.1 mg/dL | TOTAL PROTEIN [2]: 5.5 G/DL | URIC ACID [2]: 1.6 mg/dL | ABSOLUTE BASOPHIL [3]: 0 CELLS/uL | ABSOLUTE EOSINOPHIL [3]: 32 CELLS/uL | ABSOLUTE LYMPHOCYTE [3]: 5295.33 CELLS/uL | ABSOLUTE MONOCYTE [3]: 16 CELLS/uL | ABSOLUTE SEGMENTED NEUTROPHIL [3]: 290 CELLS/uL | BASOPHIL [3]: 0% | EOSINOPHIL [3]: 0.67% | ERYTHROCYTE COUNT [3]: 5.43 x10E6/uL | HEMATOCRIT [3]: 33.87% | HEMOGLOBIN [3]: 13.53 G/DL | LEUKOCYTE COUNT [3]: 5.63 x10E3/uL | LYMPHOCYTE [3]: 94% | MEAN CORPUSCULAR HEMOGLOBIN [3]: 24.9 pg | MEAN CORPUSCULAR HEMOGLOBIN CONCENTRATION [3]: 39.97 G/DL | MEAN CORPUSCULAR VOLUME [3]: 62.43 fL | MONOCYTE [3]: 0.33% | NEUTROPHIL [3]: 5% | NUCLEATED RED BLOOD CELLS [3]: 0 /100WBC | PLATELET COUNT [3]: 1171.33 x10E3/uL | ALANINE AMINOTRANSFERASE [4]: 53.33 u/L | ALBUMIN [4]: 4.17 G/DL | ALKALINE PHOSPHATASE [4]: 336 u/L | ASPARTATE AMINOTRANSFERASE [4]: 97.33 u/L | BLOOD UREA NITROGEN [4]: 10 mg/dL | CARBON DIOXIDE [4]: 31.33 mmol/L | CHLORIDE [4]: 101 MEQ/L | CHOLESTEROL [4]: 63.33 mg/dL | CREATINE PHOSPHOKINASE [4]: 631.67 u/L | CREATININE [4]: 0.13 mg/dL | GLUCOSE [4]: 157 mg/dL | LACTATE DEHYDROGENASE [4]: 132 u/L | LIPASE [4]: 11 u/L | PHOSPHORUS [4]: 10.57 mg/dL | POTASSIUM [4]: 5.78 MEQ/L | SODIUM [4]: 147.05 MEQ/L | TOTAL BILIRUBIN [4]: 0.13 mg/dL | TOTAL PROTEIN [4]: 5.93 G/DL | URIC ACID [4]: 0.77 mg/dL
